Data taken from patent US20250197343A1, “CATIONIC LIPID” (TAKEDA PHARMACEUTICAL COMPANY LIMITED, priority 2021, published 2025).

Tests used:
[1] = Particle size of Luc DNA-encapsulated lipid nanoparticles; type: physicochemical; conditions: cationic lipid:DPPC:cholesterol:GM-020=60:10.6:28:1.4 molar ratio
Method in brief: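 LNPs of cationic lipid:DPPC:cholesterol:GM-020 (60:10.6:28:1.4 molar) encapsulating luciferase DNA, made by microfluidic mixing with DNA in 10 mM MES pH 5.5, dialysed into PBS, stored in 20% sucrose/PBS at −80 °C. Size by dynamic light scattering, reported as cumulant Z-average.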

[2] = Rate of encapsulation of Luc DNA in lipid nanoparticles; type: physicochemical; parameters: unit: %; conditions: Luc DNA-encapsulated lipid nanoparticles; cationic lipid:DPPC:cholesterol:GM-020=60:10.6:28:1.4 molar ratio
Method in brief: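 Luc DNA-LNPs (cationic lipid:DPPC:cholesterol:GM-020 = 60:10.6:28:1.4 molar) formed by microfluidic mixing with DNA in 10 mM MES pH 5.5, then dialyzed into PBS. RiboGreen fluorescence measured with and without Triton X-100; encapsulation rate is the encapsulated fraction of total nucleic acid.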

[3] = test system: ICrl:CD1 (ICR) mice; assay: Mouse bioluminescence imaging evaluation (Test Example 1); type: in vivo; conditions: Luc DNA-encapsulated lipid nanoparticles 10 mL/kg i.v. to ICR mice; IVIS total flux 15 minutes after luciferin i.p.
Method in brief: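 ICR mice received Luc DNA-encapsulated lipid nanoparticles i.v. (10 mL/kg), then luciferin 15 mg/mL i.p. (10 mL/kg). Ventral IVIS imaging under isoflurane 15 min after luciferin; total flux scored A (≥3.0E+07), B (1.0E+07 to <3.0E+07), C (<1.0E+07).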

[4] = test system: Huh-7 cells; assay: Evaluation of viability using Huh-7 cells (Test Example 2); type: cell-based; conditions: Huh-7 cells, Luc DNA-encapsulated lipid nanoparticles, PBS group = 100%, dead cell group = 0%
Method: Huh-7 cells were seeded in a 96-well plate, and PBS, the Luc DNA-encapsulated lipid nanoparticles obtained in the aforesaid Production Example by using the cationic lipids of the Examples shown in Table 3, or Luc DNA-encapsulated lipid nanoparticles for control which were obtained in the same manner as in the aforesaid Production Example except that a known lipid, MC3 (DLin-MC3-DMA) or ALC-0315, was used instead of the cationic lipids of the Examples were added thereto (final concentration: 0.1 μg/mL and 0.3 μg/mL), followed by evaluation of viability (CellTiter-Fluor Cell Viability Assay, Promega Corporation). Taking the viability of dead cell group as 0% and the viability of the PBS group as 100%, the viability of each of the lipid particle groups was calculated. Higher viability indicates higher safety of the lipid particles. When the cationic lipids of the Examples were used, an improvement in safety compared to the control groups of MC3 and ALC-0315 was observed.

## CCCCCCCCC(C(=O)OC)C(=O)OCC(COC(=O)CCCN(C)C)(COC(=O)CC(CCCCC)CCCCC)COC(=O)C(CCCCCCCC)C(=O)OC (centres unmarked) [Example 132, 1,1′-[2-({[4-(Dimethylamino)butanoyl]oxy}methyl)-2-{[(3-pentyloctanoyl)oxy]methyl}propane-1,3-diyl] 3,3′-dimethyl bis(octylpropanedioate)]
[1]
  Particle size (nm): 129.2 nm
[2]
  Rate of encapsulation: 96.5
[3]
  Luminescence: A (A represents luminescence of 3.0E+07 or more)
[4]; final concentration 0.1 μg/mL
  Viability 0.1 μg/ml (%): 95%
[4]; final concentration 0.3 μg/mL
  Viability 0.3 μg/ml (%): 94%
